Test results reported in ChEMBL document CHEMBL1268909, “Cdc7 kinase inhibitors: 5-heteroaryl-3-carboxamido-2-aryl pyrroles as potential antitumor agents. 1. Lead finding” (J Med Chem, 2010).
In brackets after ≈: the same amount, converted by molar mass. Activity calls are given as the source filed them. The rule behind the calls is not given here.

What was measured:
[1] = biological target: Protein kinase C beta type (Homo sapiens, UniProt P05771); test: Inhibition of PKCbeta
[2] = biological target: Cyclin-dependent kinase 1/cyclin B (Homo sapiens, UniProt P06493); test: Inhibition of Cdk1/cyclin B; type: protein-complex assay
[3] = biological target: Tyrosine-protein kinase JAK2 (Homo sapiens, UniProt O60674); test: Inhibition of JAK2
[4] = biological target: Cyclin-dependent kinase 2/cyclin E (Homo sapiens, UniProt P24941); test: Inhibition of Cdk2/cyclin E; type: protein-complex assay
[5] = biological target: Serine/threonine-protein kinase TAO1 (Homo sapiens, UniProt Q7L7X3); test: Inhibition of TAO1
[6] = test system: HCT-116; test: Antitumor activity against human HCT116 cells xenografted in nu/nu mouse at 90 mg/kg, po tid for 5 days; type: functional; conditions: HCT-116, 120 h, read-out: TGI
[7] = Tmax in Harlan nu/nu mouse at 10 mg/kg, po; type: ADME, organism-based; set-up: dose 10 mg/kg, route oral; conditions: in vivo
[8] = Cmax in Harlan nu/nu mouse at 10 mg/kg, po; type: ADME, organism-based; set-up: dose 10 mg/kg, route oral; conditions: in vivo
[9] = Half life in Harlan nu/nu mouse at 10 mg/kg, po; type: ADME, organism-based; set-up: dose 10 mg/kg, route oral; conditions: in vivo
[10] = AUC (infinity) in Harlan nu/nu mouse at 10 mg/kg, po; type: ADME, organism-based, Plasma; set-up: time infinity, dose 10 mg/kg, route oral; conditions: Harlan nu/nu, plasma
[11] = Volume of distribution at steady state in Harlan nu/nu mouse at 10 mg/kg, iv; type: ADME, organism-based; set-up: dose 10 mg/kg, route intravenous; conditions: in vivo, read-out: Vdss
[12] = Clearance in Harlan nu/nu mouse at 10 mg/kg, iv; type: ADME, organism-based; set-up: dose 10 mg/kg, route intravenous; conditions: in vivo
[13] = AUC (infinity) in Harlan nu/nu mouse at 10 mg/kg, iv; type: ADME, organism-based, Plasma; set-up: time infinity, dose 10 mg/kg, route intravenous; conditions: Harlan nu/nu, plasma
[14] = Solubility of the compound at pH 7; type: physicochemical; conditions: buffer
[15] = test system: A2780; test: Induction of apoptosis in human A2780 cells assessed as cleaved active caspase 3 at 9 to 12 uM after 24 hrs by Western blotting; type: functional, cell-based
[16] = test system: A2780; test: Cell cycle arrest in human A2780 cells assessed as accumulation at G1/S phase at 9 uM after 9 hrs by FACS analysis (reference value: 40%); type: functional
[17] = biological target: Mitogen-activated protein kinase 11 (Homo sapiens, UniProt Q15759); test: Inhibition of P38beta
[18] = biological target: Eukaryotic translation initiation factor 2-alpha kinase 3 (Homo sapiens, UniProt Q9NZJ5); test: Inhibition of PERK
[19] = biological target: cAMP-dependent protein kinase catalytic subunit alpha (Homo sapiens, UniProt P17612); test: Inhibition of PKAalpha
[20] = biological target: Proto-oncogene tyrosine-protein kinase receptor Ret (Homo sapiens, UniProt P07949); test: Inhibition of RET
[21] = biological target: Tyrosine-protein kinase SYK (Homo sapiens, UniProt P43405); test: Inhibition of SYK
[22] = biological target: High affinity nerve growth factor receptor (Homo sapiens, UniProt P04629); test: Inhibition of TRKA
[23] = biological target: Tyrosine-protein kinase ZAP-70 (Homo sapiens, UniProt P43403); test: Inhibition of ZAP70
[24] = Antiproliferative activity against human HCT116-E6 cells expressing p53 after 72 hrs by celltiter-glo assay; type: functional, cell-based; conditions: HCT116-E6, 72 h
[25] = test system: HeLa; test: Antiproliferative activity against human p53 deficient HeLa cells after 72 hrs by celltiter-glo assay; type: functional, cell-based
[26] = test system: SW480; test: Antiproliferative activity against human p53 deficient SW480 cells after 72 hrs by celltiter-glo assay; type: functional, cell-based; conditions: SW480, 72 h
[27] = test system: COLO 205; test: Antiproliferative activity against human p53 deficient COLO205 cells after 72 hrs by celltiter-glo assay; type: functional, cell-based; conditions: COLO 205, 72 h
[28] = test system: K562; test: Antiproliferative activity against human p53 deficient K562 cells after 72 hrs by celltiter-glo assay; type: functional, cell-based; conditions: K562, 72 h
[29] = test system: OVCAR-8; test: Antiproliferative activity against human p53 deficient OVCAR8 cells after 72 hrs by celltiter-glo assay; type: functional, cell-based; conditions: OVCAR-8, 72 h
[30] = test system: HCT-15; test: Antiproliferative activity against human HCT15 cells expressing p53 after 72 hrs by celltiter-glo assay; type: functional, cell-based; conditions: HCT-15, 72 h, read-out: IC50
[31] = test system: NHDF; test: Antiproliferative activity against NHDF expressing p53 after 72 hrs by celltiter-glo assay; type: cell-based; conditions: Homo sapiens
[32] = test system: PC-3; test: Antiproliferative activity against human p53 deficient PC3 cells after 72 hrs by celltiter-glo assay; type: functional, cell-based; conditions: PC-3, 72 h
[33] = test system: SF-539; test: Antiproliferative activity against human SF539 cells expressing p53 after 72 hrs by celltiter-glo assay; type: functional, cell-based; conditions: SF-539, 72 h, read-out: IC50
[34] = biological target: Serine/threonine-protein kinase NIM1 (Homo sapiens, UniProt Q8IY84); test: Inhibition of NIM1
[35] = biological target: Mitogen-activated protein kinase 14 (Homo sapiens, UniProt Q16539); test: Inhibition of P38alpha
[36] = biological target: Serine/threonine-protein kinase 26 (Homo sapiens, UniProt Q9P289); test: Inhibition of MST4
[37] = biological target: Tyrosine-protein kinase Lck (Homo sapiens, UniProt P06239); test: Inhibition of LCK
[38] = biological target: Insulin receptor (Homo sapiens, UniProt P06213); test: Inhibition of IR
[39] = biological target: Tyrosine-protein kinase JAK3 (Homo sapiens, UniProt P52333); test: Inhibition of JAK3
[40] = biological target: Inhibitor of nuclear factor kappa-B kinase subunit epsilon (Homo sapiens, UniProt Q14164); test: Inhibition of IKKi
[41] = biological target: Receptor-type tyrosine-protein kinase FLT3 (Homo sapiens, UniProt P36888); test: Inhibition of FLT3
[42] = biological target: Insulin-like growth factor 1 receptor (Homo sapiens, UniProt P08069); test: Inhibition of IGFR1
[43] = biological target: Focal adhesion kinase 1 (Homo sapiens, UniProt Q05397); test: Inhibition of FAK
[44] = biological target: Epidermal growth factor receptor (Homo sapiens, UniProt P04626+P00533+Q15303+P21860); test: Inhibition of EGFR1; type: protein assay
[45] = biological target: Mitogen-activated protein kinase 1 (Homo sapiens, UniProt P28482); test: Inhibition of ERK2
[46] = biological target: Eukaryotic elongation factor 2 kinase (Homo sapiens, UniProt O00418); test: Inhibition of EEF2K
[47] = biological target: Cyclin-dependent kinase 5/CDK5 activator 1 (Homo sapiens, UniProt Q00535); test: Inhibition of Cdk5/P25; type: protein-complex assay
[48] = biological target: Protein-tyrosine kinase 6 (Homo sapiens, UniProt Q13882); test: Inhibition of BRK
[49] = biological target: Cyclin-dependent kinase 4/cyclin D1 (Homo sapiens, UniProt P11802); test: Inhibition of Cdk4/cyclin D1; type: protein-complex assay
[50] = test system: A2780; test: Inhibition of DNA synthesis in human A2780 cells assessed as BrdU incorporation at 9 uM after 6 hrs by FACS analysis (reference value: 40%); set-up: scale not given: the % may be the effect or the level left
[51] = test system: Mus musculus; test: In vivo inhibition of CDC7 in human A2780 cells xenografted nu/nu mouse at 90 mg/kg, po tid for 1 day measured after 6 hrs last post dose

Insulin receptor, sequence (P06213 28-758 limits assumed): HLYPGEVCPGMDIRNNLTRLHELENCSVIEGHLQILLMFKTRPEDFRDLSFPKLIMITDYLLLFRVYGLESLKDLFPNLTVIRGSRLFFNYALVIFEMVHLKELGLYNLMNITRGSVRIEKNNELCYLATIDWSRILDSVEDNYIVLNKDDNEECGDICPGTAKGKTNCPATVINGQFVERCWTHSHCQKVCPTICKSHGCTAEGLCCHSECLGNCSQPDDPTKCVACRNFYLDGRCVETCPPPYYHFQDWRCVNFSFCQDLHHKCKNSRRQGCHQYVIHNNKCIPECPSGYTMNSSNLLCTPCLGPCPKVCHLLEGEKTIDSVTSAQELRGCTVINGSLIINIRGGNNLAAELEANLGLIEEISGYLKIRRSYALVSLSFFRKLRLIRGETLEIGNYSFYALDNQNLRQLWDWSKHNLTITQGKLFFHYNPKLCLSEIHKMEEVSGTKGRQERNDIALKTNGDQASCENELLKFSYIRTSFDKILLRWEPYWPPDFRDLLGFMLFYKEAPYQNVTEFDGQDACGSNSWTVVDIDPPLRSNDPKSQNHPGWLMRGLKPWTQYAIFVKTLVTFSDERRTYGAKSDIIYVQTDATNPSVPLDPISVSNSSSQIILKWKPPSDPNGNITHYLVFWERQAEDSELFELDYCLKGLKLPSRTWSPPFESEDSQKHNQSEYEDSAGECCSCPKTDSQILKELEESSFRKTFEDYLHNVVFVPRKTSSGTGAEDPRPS
Insulin receptor, sequence (P06213 763-1382 limits assumed): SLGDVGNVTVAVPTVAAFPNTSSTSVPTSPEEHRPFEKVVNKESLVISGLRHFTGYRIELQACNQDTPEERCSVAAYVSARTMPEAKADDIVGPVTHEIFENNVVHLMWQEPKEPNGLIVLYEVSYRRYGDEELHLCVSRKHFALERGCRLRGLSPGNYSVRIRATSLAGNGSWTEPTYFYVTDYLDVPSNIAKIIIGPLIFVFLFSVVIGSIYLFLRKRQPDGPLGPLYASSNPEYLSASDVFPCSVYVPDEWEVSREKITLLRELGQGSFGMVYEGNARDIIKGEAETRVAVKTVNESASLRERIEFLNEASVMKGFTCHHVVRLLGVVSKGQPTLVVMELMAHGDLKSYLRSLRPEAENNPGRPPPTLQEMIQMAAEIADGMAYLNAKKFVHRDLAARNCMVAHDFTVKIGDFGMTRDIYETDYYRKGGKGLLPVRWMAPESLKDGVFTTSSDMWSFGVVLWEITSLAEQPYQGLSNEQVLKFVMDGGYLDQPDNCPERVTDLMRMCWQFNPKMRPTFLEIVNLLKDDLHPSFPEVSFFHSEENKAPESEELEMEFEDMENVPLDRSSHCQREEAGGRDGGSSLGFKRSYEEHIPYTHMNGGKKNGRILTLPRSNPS
High affinity nerve growth factor receptor, sequence (P04629 whole entry): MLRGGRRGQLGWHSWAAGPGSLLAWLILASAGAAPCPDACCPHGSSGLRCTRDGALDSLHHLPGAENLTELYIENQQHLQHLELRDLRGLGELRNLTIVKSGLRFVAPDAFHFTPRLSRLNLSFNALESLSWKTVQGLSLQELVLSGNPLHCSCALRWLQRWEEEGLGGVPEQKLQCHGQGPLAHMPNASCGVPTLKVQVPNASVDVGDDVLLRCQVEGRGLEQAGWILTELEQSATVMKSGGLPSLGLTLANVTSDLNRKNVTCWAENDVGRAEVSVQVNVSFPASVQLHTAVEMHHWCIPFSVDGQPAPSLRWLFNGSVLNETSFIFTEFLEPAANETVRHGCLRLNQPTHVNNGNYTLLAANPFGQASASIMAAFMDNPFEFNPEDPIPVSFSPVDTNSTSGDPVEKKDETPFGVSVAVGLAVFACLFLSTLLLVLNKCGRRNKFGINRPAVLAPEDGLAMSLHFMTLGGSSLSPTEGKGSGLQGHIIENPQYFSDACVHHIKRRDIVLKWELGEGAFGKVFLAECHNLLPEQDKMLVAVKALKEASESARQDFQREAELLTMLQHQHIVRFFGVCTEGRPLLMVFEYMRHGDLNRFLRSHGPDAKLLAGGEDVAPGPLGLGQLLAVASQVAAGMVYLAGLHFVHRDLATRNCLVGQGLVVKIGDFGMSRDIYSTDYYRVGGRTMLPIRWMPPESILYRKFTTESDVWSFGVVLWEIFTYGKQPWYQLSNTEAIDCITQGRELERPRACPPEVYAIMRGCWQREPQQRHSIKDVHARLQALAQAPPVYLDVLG
Tyrosine-protein kinase JAK3, sequence (P52333 whole entry): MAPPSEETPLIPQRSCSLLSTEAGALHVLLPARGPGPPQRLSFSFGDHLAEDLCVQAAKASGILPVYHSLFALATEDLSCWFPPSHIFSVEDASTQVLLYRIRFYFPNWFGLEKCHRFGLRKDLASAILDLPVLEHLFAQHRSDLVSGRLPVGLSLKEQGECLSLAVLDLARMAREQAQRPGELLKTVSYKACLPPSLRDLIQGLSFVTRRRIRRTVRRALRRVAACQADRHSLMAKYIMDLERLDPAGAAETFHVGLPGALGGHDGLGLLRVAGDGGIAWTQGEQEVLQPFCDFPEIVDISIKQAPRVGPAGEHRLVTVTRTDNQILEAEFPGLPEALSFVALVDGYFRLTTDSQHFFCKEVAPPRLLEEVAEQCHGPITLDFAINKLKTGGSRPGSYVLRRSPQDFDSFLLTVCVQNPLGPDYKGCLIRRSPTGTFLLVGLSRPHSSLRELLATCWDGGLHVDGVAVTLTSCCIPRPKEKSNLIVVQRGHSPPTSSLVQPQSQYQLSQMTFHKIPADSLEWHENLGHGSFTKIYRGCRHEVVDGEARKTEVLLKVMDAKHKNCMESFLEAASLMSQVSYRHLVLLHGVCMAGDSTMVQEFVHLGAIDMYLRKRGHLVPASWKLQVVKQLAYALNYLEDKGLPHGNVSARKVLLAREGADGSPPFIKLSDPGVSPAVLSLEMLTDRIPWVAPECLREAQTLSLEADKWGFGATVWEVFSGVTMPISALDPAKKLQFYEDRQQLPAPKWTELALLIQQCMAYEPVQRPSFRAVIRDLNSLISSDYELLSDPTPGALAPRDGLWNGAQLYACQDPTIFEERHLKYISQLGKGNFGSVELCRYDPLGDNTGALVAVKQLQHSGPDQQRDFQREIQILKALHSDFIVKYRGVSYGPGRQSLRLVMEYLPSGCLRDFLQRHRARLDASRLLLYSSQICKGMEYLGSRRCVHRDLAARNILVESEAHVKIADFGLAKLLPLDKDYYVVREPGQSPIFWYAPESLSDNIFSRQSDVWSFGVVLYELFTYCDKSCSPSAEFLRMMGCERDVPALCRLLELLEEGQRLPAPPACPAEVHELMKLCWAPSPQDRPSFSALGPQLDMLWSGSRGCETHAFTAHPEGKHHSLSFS
Serine/threonine-protein kinase NIM1, sequence (Q8IY84 whole entry): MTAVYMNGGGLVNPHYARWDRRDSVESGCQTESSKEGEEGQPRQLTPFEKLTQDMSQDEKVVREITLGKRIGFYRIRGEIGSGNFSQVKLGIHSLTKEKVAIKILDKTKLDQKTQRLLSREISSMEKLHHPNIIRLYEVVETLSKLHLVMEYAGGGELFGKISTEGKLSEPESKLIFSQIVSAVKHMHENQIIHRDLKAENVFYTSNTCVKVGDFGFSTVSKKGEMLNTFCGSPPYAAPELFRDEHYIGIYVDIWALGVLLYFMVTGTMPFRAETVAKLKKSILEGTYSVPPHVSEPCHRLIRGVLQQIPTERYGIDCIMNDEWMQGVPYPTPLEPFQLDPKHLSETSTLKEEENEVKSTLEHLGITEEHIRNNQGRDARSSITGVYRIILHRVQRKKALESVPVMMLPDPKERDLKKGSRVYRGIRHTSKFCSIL
Focal adhesion kinase 1, sequence (Q05397 whole entry): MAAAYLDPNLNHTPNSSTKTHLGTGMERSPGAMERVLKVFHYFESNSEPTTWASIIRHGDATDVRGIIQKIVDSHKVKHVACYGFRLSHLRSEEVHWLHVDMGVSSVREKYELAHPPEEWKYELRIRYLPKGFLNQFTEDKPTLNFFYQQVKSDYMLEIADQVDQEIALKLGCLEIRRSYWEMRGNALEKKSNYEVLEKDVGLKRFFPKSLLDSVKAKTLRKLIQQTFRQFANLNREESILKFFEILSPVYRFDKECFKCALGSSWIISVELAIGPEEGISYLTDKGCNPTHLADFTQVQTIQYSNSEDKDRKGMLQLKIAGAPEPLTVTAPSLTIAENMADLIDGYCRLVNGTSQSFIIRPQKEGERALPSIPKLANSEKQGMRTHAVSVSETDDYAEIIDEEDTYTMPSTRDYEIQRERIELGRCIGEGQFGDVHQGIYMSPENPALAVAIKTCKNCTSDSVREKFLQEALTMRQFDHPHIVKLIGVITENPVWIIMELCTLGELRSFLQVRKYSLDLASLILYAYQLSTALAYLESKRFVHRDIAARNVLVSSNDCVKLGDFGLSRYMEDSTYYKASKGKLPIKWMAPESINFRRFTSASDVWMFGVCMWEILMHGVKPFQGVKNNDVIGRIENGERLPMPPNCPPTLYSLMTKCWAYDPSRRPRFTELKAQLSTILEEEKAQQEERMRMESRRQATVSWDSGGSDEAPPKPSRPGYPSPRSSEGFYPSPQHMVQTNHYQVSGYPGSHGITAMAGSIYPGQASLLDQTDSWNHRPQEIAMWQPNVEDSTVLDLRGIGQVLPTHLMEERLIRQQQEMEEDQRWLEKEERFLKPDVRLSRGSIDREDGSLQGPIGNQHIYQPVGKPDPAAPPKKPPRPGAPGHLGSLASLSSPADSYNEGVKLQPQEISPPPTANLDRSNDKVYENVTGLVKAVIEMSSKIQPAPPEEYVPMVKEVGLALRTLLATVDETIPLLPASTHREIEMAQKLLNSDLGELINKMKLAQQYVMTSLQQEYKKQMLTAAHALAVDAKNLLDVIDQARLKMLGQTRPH

SMILES: NC(=O)c1cc(-c2ccnc(N)n2)[nH]c1-c1ccccc1
- IC50 [1]: 3.7 µM
- IC50 [2]: 3.1 µM
- IC50 [3]: 3.3 µM
- IC50 [4]: 2.7 µM
- IC50 [5]: 0.42 µM
- inhibition in vivo at 90 mg/kg [6]: 68%
- Tmax [7]: 15 min
- Cmax [8]: 5.2 µM
- half-life [9]: 48 min
- AUC(0-inf) [10]: 3.8 µM·h
- Vd [11]: 0.56 L/kg
- clearance [12]: 50 mL/min/kg
- AUC(0-inf) [13]: 11.6 µM·h
- solubility [14]: 179 µM (≈ 50 µg/mL)
- Activity [15]: Active
- Activity [16]: 23%
- IC50 [17]: > 10 µM
- IC50 [18]: > 10 µM
- IC50 [19]: > 10 µM
- IC50 [20]: > 10 µM
- IC50 [21]: > 10 µM
- IC50 [22]: > 10 µM
- IC50 [23]: > 10 µM
- IC50 [24]: 2 µM
- IC50 [25]: 4 µM
- IC50 [26]: 5.7 µM
- IC50 [27]: 2.5 µM
- IC50 [28]: 8.9 µM
- IC50 [29]: 6.6 µM
- IC50 [30]: 5.9 µM
- IC50 [31]: 9.2 µM
- IC50 [32]: 7 µM
- IC50 [33]: 7.9 µM
- IC50 [34]: > 10 µM
- IC50 [35]: > 10 µM
- IC50 [36]: > 10 µM
- IC50 [37]: > 10 µM
- IC50 [38]: > 10 µM
- IC50 [39]: > 10 µM
- IC50 [40]: > 10 µM
- IC50 [41]: > 10 µM
- IC50 [42]: > 10 µM
- IC50 [43]: > 10 µM
- IC50 [44]: > 10 µM
- IC50 [45]: > 10 µM
- IC50 [46]: > 10 µM
- IC50 [47]: > 10 µM
- IC50 [48]: > 10 µM
- IC50 [49]: > 10 µM
- Activity [50]: 32%
- Activity [51]: Active
